Each block holds one compound with its values, some of them ahead of it.
Tests used:
[1] = log P determination by LC-MS in the acidic range (HCOOH); format: physicochemical; settings: LC-MS column with aqueous formic acid/acetonitrile gradient, pH 2.7, 0.1% aqueous formic acid and acetonitrile
Procedure: The LC-MS determination in the acidic range is carried out at pH 2.7 using 0.1% aqueous formic acid and acetonitrile (contains 0.1% formic acid) as mobile phases; linear gradient from 10% acetonitrile to 95% acetonitrile.
Calibration is carried out using unbranched alkan-2-ones (with 3 to 16 carbon atoms) with known log P values (determination of the log P values by the retention times using linear interpolation between two successive alkanones).

[2] = test system: green peach aphid (Myzus persicae); assay: Myzus test (MVZUPE spray treatment); format: in vivo; settings: after 6 days, Chinese cabbage leaf discs
Procedure: (§1) To produce a suitable preparation of active compound, one part by weight of active compound is mixed with the stated amounts of solvents and emulsifier, and the concentrate is diluted with emulsifier-containing water to the desired concentration.
Discs of Chinese cabbage leaves (Brassica pekinensis) which are infested by all stages of the green peach aphid (Myzus persicae) are sprayed with an active compound preparation of the desired concentration.
(§2) After 6 days, the effect in percent is determined. 100% means that all aphids have been killed; 0% means that none of the aphids have been killed.

[3] = test system: larvae of the mustard beetle (Phaedon cochleariae); assay: Phaedon test (PHAECO spray treatment); format: in vivo; settings: application rate 500 g/ha, after 7 days, Chinese cabbage leaf discs
Procedure: [table] To produce a suitable preparation of active compound, one part by weight of active compound is mixed with the stated amounts of solvents and emulsifier, and the concentrate is diluted with emulsifier-containing water to the desired concentration. Discs of Chinese cabbage leaves (Brassica pekinensis) are sprayed with an active compound preparation of the desired concentration and, after drying, populated with larvae of the mustard beetle (Phaedon cochleariae).

[4] = test system: caterpillars of the armyworm (Spodoptera frugiperda); assay: Spodoptera frugiperda test (SPODFR spray treatment); format: in vivo; settings: after 6 days, maize leaf discs
Procedure: as §1
Discs of maize leaves (Zea mays) are sprayed with an active compound preparation of the desired concentration and, after drying, populated with caterpillars of the armyworm (Spodoptera frugiperda).
as §2

chromatographic logP [1]: 2.15
SMILES: CON1CCC2(CC1)OC(=O)C(c1c(C)cc(C)cc1C)=C2O [I-a-1]

SMILES: CCc1cc(C)cc(C)c1C1=C(O)C2(CCN(OC)CC2)OC1=O [I-a-3]
activity (aphids killed) ([2]; application rate 500 g/ha): 100%

SMILES: CON1CCC2(CC1)OC(=O)C(c1cc(-c3ccc(Cl)cc3)ccc1C)=C2O [I-a-4]
activity (aphids killed) ([2]; application rate 500 g/ha): 100%
activity (beetle larvae killed) [3]: 100%

SMILES: CON1CCC2(CC1)OC(=O)C(c1c(C)ccc(-c3ccc(Cl)cc3)c1C)=C2O [I-a-5]
activity (killed) ([4]; application rate 500 g/ha): ≥ 80%
activity (aphids killed) ([2]; application rate 100 g/ha): 100%

SMILES: CCc1cc(-c2ccc(Cl)cc2)cc(C)c1C1=C(O)C2(CCN(OC)CC2)OC1=O [I-a-6]
activity (beetle larvae killed) [3]: 100%

SMILES: CCON1CCC2(CC1)OC(=O)C(c1c(C)cc(C)cc1C)=C2O [I-a-7]
activity (aphids killed) ([2]; application rate 500 g/ha): 100%

SMILES: CON1CCC2(CC1)OC(=O)C(c1c(C)ccc(-c3ccc(F)cc3)c1C)=C2O [I-a-9]
activity (aphids killed) ([2]; application rate 500 g/ha): 100%

SMILES: CCc1cc(C)cc(CC)c1C1=C(O)C2(CCN(OC)CC2)OC1=O [I-a-10]
activity (aphids killed) ([2]; application rate 500 g/ha): 100%

SMILES: CCON1CCC2(CC1)OC(=O)C(c1c(CC)cc(C)cc1CC)=C2O [I-a-11]
activity (aphids killed) ([2]; application rate 500 g/ha): 100%

SMILES: CCON1CCC2(CC1)OC(=O)C(c1c(C)ccc(-c3ccc(Cl)cc3)c1C)=C2O [I-a-12]
activity (killed) ([4]; application rate 100 g/ha): ≥ 100%
activity (aphids killed) ([2]; application rate 500 g/ha): 100%

SMILES: CCON1CCC2(CC1)OC(=O)C(c1cc(-c3ccc(Cl)cc3)ccc1C)=C2O [I-a-13]
activity (aphids killed) ([2]; application rate 500 g/ha): 100%
activity (beetle larvae killed) [3]: 100%

chromatographic logP [1]: 4.28
SMILES: CCOC(=O)C1(OC(=O)Cc2c(C)cc(C)cc2C)CCN(OC)CC1 [II-1]

chromatographic logP [1]: 0.94
SMILES: CCOC(=O)C1(O)CCN(OC)CC1 [XIV-1]

chromatographic logP [1]: 1.16
SMILES: CCOC(=O)C1(O)CCN(OCC)CC1 [XIV-2]

Reference: patent US8592610B2, “Spiroheterocyclic tetronic acid derivatives” (Bayer CropScience AG, priority 2009, dated 2013)
